BindingDB's records for doi:10.1016/j.bmcl.2005.10.011 (4Sc, 2006)

Target: T1, Dihydroorotate dehydrogenase (quinone), mitochondrial [30-395] (Homo sapiens, UniProt Q02127)
T1 construct: 30-395
Test: DHODH Inhibition Assay
Conditions: pH 8; 25 °C
Procedure: The assays were carried out by using a colorimetric DCIP method, which uses the colorimetric reagent 2, 6-dichlorophenolindophenol as the final electron acceptor. DCIP reduction is stoichiometrically equivalent to oxidation of dihydroorotate. Changes in absorbance were quantified in triplicate on a plate reader and data were analyzed to measure the reduction of DCIP as a decrease in absorbance at 610 nm. […] Each data point was recorded in triplicates on a single measurement day.

T1 sequence (Q02127 30-395): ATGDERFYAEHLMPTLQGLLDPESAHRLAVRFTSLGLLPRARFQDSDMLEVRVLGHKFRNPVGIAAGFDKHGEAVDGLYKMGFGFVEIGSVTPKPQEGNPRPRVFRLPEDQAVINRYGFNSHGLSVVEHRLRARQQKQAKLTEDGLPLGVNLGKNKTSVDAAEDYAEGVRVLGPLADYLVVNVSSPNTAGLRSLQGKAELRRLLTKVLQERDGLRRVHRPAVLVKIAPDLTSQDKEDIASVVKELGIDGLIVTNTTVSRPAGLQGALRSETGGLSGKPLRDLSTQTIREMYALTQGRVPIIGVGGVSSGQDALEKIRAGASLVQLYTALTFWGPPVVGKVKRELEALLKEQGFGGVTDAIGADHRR

IC50: 0.01 µM
SMILES: O=C(O)c1cscc1C(=O)Nc1c(F)cc(-c2cccc(OC(F)(F)F)c2)cc1F [4-({2,6-difluoro-4-[3-(trifluoromethoxy)phenyl]phenyl}carbamoyl)thiophene-3-carboxylic acid]
